Assay results as given in paper PMC6123711, “Conformational signatures in β-arrestin2 reveal natural biased agonism at a G-protein-coupled receptor” (Communications Biology, 2018).

Tests used:
[1] = tested on: Galr2–β-arrestin2–clathrin complex; experiment: β-arrestin2–clathrin interactions (NanoBit); assay type: cell-based, human; conditions: 30 μM cmpd101 (GRK2/3 inhibitor) pretreatment; 10 μM agonist
Description: The interaction between β-arrestin2 and clathrin induced by the activation of Galr2 was examined using the NanoBit technology. We measured real-time association of the protein complex Galr2–β-arrestin2–clathrin. We constructed β-arrestin2 and clathrin subunit A tagged with LgBit or SmBit at the C or N termini and screened eight different plasmid combinations, out of which only one combination (β-arrestin2–LgBit:SmBit–clathrin) responded to ligand stimulation (Fig. 3, Supplementary Fig. 3). Before ligand stimulation, Galr2, β-arrestin2, and clathrin were not in close proximity and so the basal luminescence was very low. […] A time course experiment was initially performed to determine the time at which the maximal increase in luminescence occurred following agonist stimulation. All ligands except for Fmoc-dA4-dQ14 induced different fold increase in luminescence immediately after ligand treatment (Fig. 3b). […] Galanin- and Spexin-induced increases in luminescence were attenuated by pretreatment of cmpd101, a G-protein-coupled receptor kinase 2/3 (GRK2/3) inhibitor, indicating contribution of GRK2/3 in the formation of Galr2–β-arrestin2–clathrin complex (Fig. 3).
The arrows indicate the time when the cells were treated with different ligands. […] The results are expressed as mean ± s.e.m. of three experiments performed in triplicate. Each triplicate was averaged before calculating the s.e.m.
(§1) Quantification of bias between each pathway was performed using Galanin as a reference ligand. All incubations for the different signaling assays were performed in serum-free medium to prevent peptide degradation.
One day before transfection, cells were seeded in 96-well plates at a density of 2.5 × 10^4 cells per well. A mixture containing 35 ng β-arrestin construct containing the LgBit or SmBit, 35 ng clathrin subunit A containing one of the two domains of Nluc and 30 ng untagged receptor, and 0.2 μl Lipofectamine 2000 (Invitrogen) was prepared and added to each well. We followed the assay manufacturer’s instructions and tested eight β-arrestin-clathrin plasmid combinations. In only one plasmid combination we were able to observe luminescent signal and it was chosen for further experiments. At 24 h post transfection, medium was aspirated and replaced with 100 μl OPTIMEM at room temperature. After a 10-min incubation, 25 μl substrate (furimazine) was added and the luminescence was monitored once every minute for 10 min. Then, 10 μl ligand was added to each well and the luminescence values were recorded immediately and once every minute for 1 h (Synergy 2 Multi-Mode Microplate Reader BioTek).

[2] = tested on: Galr2; experiment: Galr2 internalization assay based on HiBiT technology; assay type: cell-based, human; conditions: 30 μM Cmpd101 30 min; 25 μM PitStop 2 (clathrin) 15 min; 80 μM Dynasore (dynamin) 40 min; Galanin 30 min
Protocol: The HiBiT protein tagging system, like NanoBiT technology, consists of two subunits: the large fragment (LgBiT) with 156 amino acids and the small fragment of Nluc (SmBiT-High-affinity) with only 11 amino acids that has a very high affinity to LgBit. To quantify Galr2 at the cell surface, cells expressing Galr2 tagged with the SmBiT-High-affinity were treated with cell-impermeable LgBiT along with the Nluc substrate furimazine. SmBiT-High-affinity-Galr2 on the cell surface binds to LgBiT which produces a luminescent signal, while SmBiT-High-affinity-Galr2 inside the cells cannot bind to LgBiT (Fig. 4a).
Fig. 4 Internalization of Galr2. a Schematic representation of the internalization assay. […] Before ligand stimulation, cells were pretreated with 30 μM Cmpd101 (a GRK2/3 inhibitor) for 30 min, 25 μM PitStop 2 (a Clathrin inhibitor) for 15 min, and 80 μM Dynasore (a Dynamin inhibitor) for 40 min. […] Remaining cell surface receptors were determined by measuring the luminescent signal produced by the binding between LgBiT and the Galr2-SmBiT-High affinity. Each data point represents mean ± s. e. m. of two independent experiments performed in triplicate
as §1
Internalization assays were performed using the Nano-Glo HiBiT extracellular detection system acquired from Promega Corporation (Cat. No. N2421). The day before transfection, HEK293 cells were seeded in 96-well plates at a density of 2.5 × 10^4 cells per well. The following day, cells were transfected with a mixture prepared containing 0.5 ng of SmBiT-high-affinity-Galr2 construct and 0.2 μl Lipofectamine 2000 (Invitrogen) added to each well. […] Then luminescence values were recorded immediately (Synergy 2 Multi-Mode Microplate Reader BioTek). […]

[3] = tested on: luteinizing hormone (LH) secretion; conditions: cited from earlier work
Description: G-protein-coupled receptors (GPCRs) are the largest family of cell surface receptors that communicate extracellular stimuli to the cell interior[1]. Biased ligands are of particular interest because they offer the possibility to design a novel class of therapeutic agents. In some GPCRs, biased ligands that preferentially activate G-protein-dependent signaling have therapeutic potential. […] Most descriptions of biased ag ...

| Molecule | effect of pretreatment on Galanin- and Spexin-induced β-arrestin2–clathrin luminescence increase [1] | effect of inhibitor on Galanin-induced Galr2 internalization [2] | LH secretion, rat [3] |
| --- | --- | --- | --- |
| Cn1c(CNc2cccc(C(=O)NCc3ccccc3C(F)(F)F)c2)nnc1-c1ccncc1 [cmpd101, reference compound] | attenuated | partially blocked | – |
| galanin-like peptide: galanin-like peptide, a Galanin paralog (APAHRGRGGWTLNSAGYLLGPVLHLPQMGDQDGKRETALEILDLWKAIDGLPYSHPPQPS; Galanin-like peptide; UniProt Q9UBC7 25-84, looked up) | – | – | stimulates luteinizing hormone (LH) secretion |
